Values joined by “and” are separate entries in the source; they are usually repeats but may differ in a detail not shown here. Identical values can stand only once.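 Tested at 5 concentrations; 48 h exposure; 96-well plates; endpoints linearly interpolated, else capped at highest concentration. Abbreviation: GI50, concentration required for 50% inhibition of growth. TGI: total growth inhibition.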

The assay concerns MDA-MB-468 breast. The experiment in a line: NCI-60 cell line screen, 48 h.
Regarding `COc1ccc(F)c(F)c1C(=O)c1cnc(NC2CCN(S(C)(=O)=O)CC2)nc1N`, the GI50 is 1370 nM and 687 nM; the TGI was 3540 nM and 2700 nM.

For the compound `CCOC(=O)N1CCN(CCCCCOc2ccccc2C2CCCCC2)CC1`, the GI50 is 2410 nM and the TGI was determined as 8460 nM.

As to `c1ccc(-c2nc(N3CCCNCC3)c3nc(-c4ccccc4)oc3n2)cc1`, the GI50 was 1720 nM and the TGI came out at 3370 nM.

For `COc1ccc(-c2cnoc2-c2cc(OC)c3c(c2)OCCO3)cc1`, the GI50 was 29.6 nM and the TGI came to 1030 nM.

On to `O=[N+]([O-])c1ccc(-c2cc3c(Nc4ccc(Cl)c(C(F)(F)F)c4)ncnc3s2)cc1`, for which the GI50 was 1640 nM and the TGI was found to be 6030 nM.

`COc1cccc(COc2cc(-n3cnc4ccccc43)sc2C(N)=O)c1`: the GI50 is 717 nM and the TGI was found to be 6170 nM.

As to `CCN(CC)CCOc1ccc(C(=C(C)c2ccc(OC)cc2)c2ccc(OCCN(CC)CC)cc2)cc1`, the GI50 was 830 nM and the TGI amounted to 1860 nM.

As for `COc1ccc(C2=C(N3CCc4ccccc43)C(=O)NC2=O)cc1`, the GI50 was 18000 nM and the TGI was over 25000 nM.

For `O=C(/C=C/c1cccc(O)c1)c1cccc(-n2cc(-c3ccc4ccccc4c3)[nH]c2=O)c1`, the GI50 was 2860 nM and the TGI was 12800 nM.

Turning to `CC(C)Oc1ccc(C(=O)Cn2ccnc2)cc1-n1c(CN2CCN(C(=O)COc3ccc(Cl)cc3)CC2)nc2ccccc2c1=O`, the GI50 was 9950 nM and the TGI was 35900 nM.

As to `CCOc1ccc(Nc2c3ccccc3nc3ccccc23)cc1`, the GI50 is 258 nM and 325 nM; the TGI was 987 nM and 2320 nM.

Take `CCn1c(-c2nonc2N)nc2ccncc21`: the GI50 is over 25000 nM and the TGI was over 25000 nM.

Turning to `Nc1cc(-c2ccc(Cl)cc2)nn1-c1nnc(/C=C/c2ccco2)c(=O)[nH]1`, the GI50 was 3080 nM and the TGI came to 22200 nM.

`c1cnn2ncc(-c3ccnc(Nc4ccc5c(c4)OCCO5)n3)c2c1`: the GI50 is 59.4 nM and the TGI worked out at 180 nM.

As to `COc1ccc(C(=O)c2nc3ccccc3n2CC(=O)c2ccc(Cl)cc2)cc1`, the GI50 was 2080 nM and the TGI is 11500 nM.

`[2H]c1nc(=Nc2cc(NC(=O)C=C)c(N(C)CCN(C)C)cc2OC)[nH]c(-c2cn(C([2H])([2H])[2H])c3ccccc23)c1[2H]`: the GI50 is 28.8 nM and the TGI came out at 957 nM.

As to `Clc1nncc2sc(-c3ccccc3)nc12`, the GI50 is 14400 nM and the TGI amounted to 69500 nM.

For `CC(C)[O-].CC(C)[O-].CN(CCN(C)Cc1cc(F)cc(F)c1[O-])Cc1cc(F)cc(F)c1[O-].[Ti+4]`, the GI50 was 542 nM and the TGI was found to be 2880 nM.

Take `COc1cccc2c(=O)c3c(sc12)c(NCCCNCCO)nc1ccccc13`: the GI50 is 1530 nM and the TGI was determined as 3130 nM.

For the compound `Cc1ccc(-n2nc(C(C)(C)C)cc2NC(=O)NCc2cc(F)ccc2Oc2ccc3c(cnn3CCO)c2)cc1`, the GI50 is 6550 nM and 3580 nM; the TGI was over 65900 nM.

With `Clc1ccc2c(c1)N(c1ncnc3ccc(-c4cnc5[nH]ncc5c4)cc13)CC2`, the GI50 was 217 nM and the TGI stood at 1470 nM.

Regarding `COc1cc2nc(-c3ccc(C(F)(F)F)cc3)cc(OCCCN3CCCC3)c2cc1OC`, the GI50 is 1090 nM and the TGI came out at 3720 nM.

For `Fc1ccc2nc(-c3cc(-c4ccc5c(c4)OCO5)n[nH]3)[nH]c2c1`, the GI50 is 3580 nM and the TGI was over 80800 nM.

As to `CCCCCCCCCCCCCC[n+]1cccc(C(N)=O)c1`, the GI50 is 567 nM and the TGI stood at 2560 nM.

For `O=C(c1cccs1)C1NO[N+]([O-])=C1c1cccs1` (stereo not given), the GI50 was 1690 nM and the TGI was 3380 nM.

`CC(C)(C)c1ccc(C(=O)Nc2sc3c(c2C(N)=O)CCC(O)C3)cc1` (stereo not given): the GI50 is 3010 nM and the TGI amounted to 12600 nM.

On to `CCNCCNc1cc(-c2ccc(C#N)cc2)c(C#N)c2nc3ccccc3n12`, for which the GI50 was 1790 nM and the TGI was 4150 nM.

In the case of `CCN(CC)c1ccc(/C=C/C2=[N+](C)c3ccccc3C2(C)C)c(C)c1`, the GI50 was under 19 nM and the TGI is 181 nM.

On to `Nn1c(=O)n(-c2cccc(C(F)(F)F)c2)c(=O)c2cc(-c3ccc(F)cc3F)ccc21`, for which the GI50 is 1990 nM and the TGI was 6210 nM.

On to `COc1ccc(Nc2nccc(N3CCN(c4c5ccc(Cl)cc5nc5ccc(OC)cc45)CC3)n2)cc1`, for which the GI50 is 2690 nM and the TGI was 23000 nM.

`CN(C)S(=O)(=O)c1oc(-c2ccccc2)nc1C#N`: the GI50 is 12300 nM and the TGI was 32900 nM.

In the case of `OCc1ccc(N2CCOCC2)cc1Cl`, the GI50 was 732 nM and the TGI stood at 3100 nM.

For the compound `CC(=Nc1ccc(S(N)(=O)=O)cc1)c1c(O)[nH]c2ccccc12`, the GI50 was over 25000 nM and the TGI is over 25000 nM.

On to `O=C1/C(=C/c2ccc([N+](=O)[O-])cc2)COc2ccc(O)cc21`, for which the GI50 was 2230 nM and the TGI stood at 7600 nM.

As to `COc1ccc(-n2nc(C)c3c(Nc4ccc(NC(=O)Nc5ccc(Cl)c(C(F)(F)F)c5)cc4)ncnc32)cc1`, the GI50 was 1880 nM and the TGI was 4620 nM.

(Values after PubChem BioAssay (NCI).)
